According to article PMC7913524, “Novel Biphenyl Amines Inhibit Oestrogen Receptor (ER)-α in ER-Positive Mammary Carcinoma Cells” (Molecules, 2021):
Where two headings read alike, the source gives them in different places.

Experiments:
ERα = molecular target: T1, ERα (Homo sapiens, UniProt P03372); experiment: ER-alpha competitive binding assay (PolarScreen ER Alpha Competitor, fluorescence polarization); conditions: read-out: CBA IC50 + SD (competitive binding affinity)
T1 construct: purchased Life Technologies
T1 sequence (P03372 1-595): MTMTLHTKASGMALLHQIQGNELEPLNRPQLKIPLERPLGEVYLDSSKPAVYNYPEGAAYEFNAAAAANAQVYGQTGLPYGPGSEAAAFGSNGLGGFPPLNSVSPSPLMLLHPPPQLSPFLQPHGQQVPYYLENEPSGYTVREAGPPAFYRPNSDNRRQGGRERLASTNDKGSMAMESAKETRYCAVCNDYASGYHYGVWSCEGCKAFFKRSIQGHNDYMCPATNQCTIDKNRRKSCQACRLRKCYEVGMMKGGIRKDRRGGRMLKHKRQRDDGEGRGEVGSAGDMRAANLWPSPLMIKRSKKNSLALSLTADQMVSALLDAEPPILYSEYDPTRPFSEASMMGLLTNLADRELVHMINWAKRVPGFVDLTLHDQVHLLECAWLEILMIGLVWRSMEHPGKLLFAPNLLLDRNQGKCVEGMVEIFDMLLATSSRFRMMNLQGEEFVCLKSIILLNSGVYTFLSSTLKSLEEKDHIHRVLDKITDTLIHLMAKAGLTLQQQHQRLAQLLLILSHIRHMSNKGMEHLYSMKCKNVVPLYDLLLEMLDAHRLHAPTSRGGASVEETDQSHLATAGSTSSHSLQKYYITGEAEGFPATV
Source text: First, to rank the novel biphenyl derivatives based on binding affinity to ERα, a commercially available fluorescence polarization assay kit (PolarScreen™ ER Alpha Competitor assay) was utilized. […] The smaller size of the free molecule can be discerned by increased mobility in the solution, which is detected by fluorescence polarization (FP). A shift in the FP value in the presence of the test compounds is used to determine the relative affinity of test compounds for ERα.
The assay was performed as per the manufacturer’s instructions. The Fluorescence polarization value (mP) of each well on a fluorescence polarization plate was measured using fluorescence polarization Tecan infinite M1000PRO multimode microplate reader (Tecan, Switzerland). Data were modelled using GraphPad Prism® software from GraphPad Software, Inc..

MCF7 cells = experiment: AlamarBlue cell viability assay, MCF7; assay type: cell-based, human; conditions: read-out: Cell Viability (MCF7 Cells) IC50 ± SD
Description: (§1) Next, we determined the potential functional effects of novel ATBA compounds on the viability of MCF7 cells using an AlamarBlue® cell viability assay. […] We also determined the functional efficacy of the 4c compound in additional ER+ MC cell lines using an AlamarBlue® cell viability assay.
The human Michigan Cancer Foundation-7 (MCF7) cell line was obtained from the American Type Culture Collection (ATCC, Rockville, Gaithersburg, MD, USA) and was cultured as per ATCC propagation instructions.
(§2) AlamarBlue®, 3D Matrigel, and luciferase assay: AlamarBlue® cell viability kits were obtained from ThemoFisher Scientific (Waltham, Massachusetts, USA), and the assay was performed as previously described. 3D Matrigel assays were performed as previously described. Luciferase assays were performed as previously described. Briefly, transfections were carried out in triplicate using 1 μg of the appropriate luciferase reporter construct or empty vector along with 0.1 μg of Renilla luciferase construct as a control for transfection efficiency. Luciferase activities were measured using the Dual-Luciferase Assay System (Promega Corp, Madison, WI, USA).

[1] = system: MCF7 cell-generated spheroids; experiment: 3D Matrigel spheroid cell viability; assay type: cell-based, human; conditions: preformed MCF7 spheroids in 3D Matrigel, 5 µM, 72 h
Description: Furthermore, we examined the effect of the novel biphenyl derivatives on preformed spheroids generated using MC cells in 3D Matrigel (Figure 2).
as §2
Figure 2 Cell viability of MCF7 cell-generated spheroids after culture in 3D Matrigel for 10 days. Preformed MCF7 cell-generated spheroids were treated with compounds for 72 h before assessing cell viability. A concentration of 5 µM was used for the treatment. The cell viability of the MCF7 cell-generated spheroids was evaluated using an AlamarBlue® viability assay as described in the Materials and Methods section. Bars are the mean of triplicate experiments; bars, ±SD. ** P < 0.001, * P < 0.05.

[2] = system: oestrogen response element (ERE) transcriptional activity (ERα); experiment: ERE-luc luciferase reporter assay in MCF7 cells; assay type: cell-based, human; conditions: for antagonist activity against ERα (luciferase activity): MCF7 cells, with E2 10^-8 M, compounds 10^-10 to 10^-4 M
Description: as §2, with “Next, to evaluate the activity of the synthesized compounds as agonists or antagonists to ERα, a reporter assay was performed with ERE-luc. […] AlamarBlue®,” for “AlamarBlue®,”, “USA). […] (lower panel). MCF7 cells were co-transfected with ERE-luc (firefly luciferase) and Renilla luciferase constructs as described in the Materials and Methods section. […] Results are shown as mean (+SD for triplicate transfection).” for “USA).”

T47D cells = experiment: AlamarBlue cell viability assay, T47D; assay type: cell-based; conditions: Homo sapiens
Description: as §1, §2

BT474 cells = experiment: AlamarBlue cell viability assay, BT474; assay type: cell-based; conditions: Homo sapiens, BT-474
Description: as §1, §2

MDA-MB-361 cells = experiment: AlamarBlue cell viability assay, MDA-MB-361; assay type: cell-based; conditions: Homo sapiens
Description: as §1, §2

CCND1 protein expression = experiment: Western blot of CCND1 in MCF7 cells; assay type: cell-based, human
Description: Increased expression of CCND1 is associated with approximately 50% of breast cancer cases and directly regulated by ER signalling. To determine functional effects downstream of ERα, we examined the effect of ATBA compounds on hCCND1 protein expression in MC cells. […] Western blot analysis: Western blot analysis was performed as previously described, using a primary monoclonal antibody against CCND1 and β-ACTIN obtained from Cell Signalling, Danvers, Massachusetts, USA. Quantification of blot was performed by use of ImageJ software from NIH, USA (http://imagej.nih.gov/ij/) as described previously. […] Soluble whole-cell extracts were run on an SDS-PAGE and immunoblotted. β-ACTIN was used as input control for cell lysate (left side). The predicted sizes of detected protein bands in kDa are shown on the left side. The average of three independent densitometry analyses of CCND1 and β-ACTIN is shown above (right side) by use of Image J software from NIH, USA (http://imagej.nih.gov/ij/) as described previously.

[3] = vNN-ADMET prediction: MRTD; conditions: relative to TAM

SMILES | IC50 (ERα) [µM] | IC50 (MCF7 cells; AlamarBlue) [µM] | IC50 (MCF7 cells; Homo sapiens, MCF7, AlamarBlue) [µM] | cell viability of spheroids compared to vehicle (DMSO) [1] | antagonist activity against ERα (luciferase activity) [2] | also measured
COc1ccc(Nc2cccc3ccccc23)cc1C12CC3CC(CC(C3)C1)C2 [4i] | 0.264 | 47.6 ± 7.48 | ~50 |  |  | 
COc1ccc(Nc2ccc(C)cc2)cc1C12CC3CC(CC(C3)C1)C2 [4f, 3-(Adamantan-1-yl)-4-methoxy-N-(p-tolyl) aniline] | 0.0985 |  | 12.3 ± 3.77 | significantly decreased cell viability | most potent antagonist activity against ERα in a dosage-dependent manner | 
COc1ccc(Nc2ccc(C)cn2)cc1C12CC3CC(CC(C3)C1)C2 [4h] | 0.189 | 42.2 ± 9.31 | ~50 |  |  | 
COc1ccc(Nc2cccc(O)c2)cc1C12CC3CC(CC(C3)C1)C2 [4d, 3-((3-(Adamantan-1-yl)-4-methoxyphenyl)amino) phenol] | 0.0826 |  | 8.81 ± 1.85 | significantly decreased cell viability | most potent antagonist activity against ERα in a dosage-dependent manner | 
COc1ccc(Nc2ccc(OC)c(C34CC5CC(CC(C5)C3)C4)c2)cc1 [4b, 3-(Adamantan-1-yl)-4-methoxy-N-(4-methoxyphenyl) aniline] | 0.202 |  | > 50 |  |  | 
COc1ccc(Nc2ccc(C(F)(F)F)cc2)cc1C12CC3CC(CC(C3)C1)C2 [4c, 3-(Adamantan-1-yl)-4-methoxy-N-(4-(trifluoromethyl)phenyl) aniline] | 0.0628 | 6.29 ± 2.41 | 6.4 | significantly decreased cell viability | most potent antagonist activity against ERα in a dosage-dependent manner | IC50 (T47D cells): 7.38 µM; IC50 (BT474 cells): 6.36 µM; IC50 (MDA-MB-361 cells): 8.31 µM; inhibitory effect on spheroids compared to TAM-treated spheroids [1]: significant inhibitory effect compared to TAM-treated MC cell-generated spheroids; inhibitory effect on spheroids compared to TAM-treated spheroids ([1]; listed as AMTA): superior inhibitory effect compared to tamoxifen-treated MC cell spheroids; IC50 ([2]; Homo sapiens, MCF7): 0.83 ± 0.06 µM; antagonist activity against ERα (luciferase activity) ([2]; listed as AMTA): significantly deceased ERE transcriptional activity; CCND1 protein levels (CCND1 protein expression): most potently decreased the protein levels of CCND1 in MC cells in the nanomolar range; CCND1 protein levels (CCND1 protein expression; listed as AMTA): significantly decreased protein levels of oestrogen-regulated CCND1 in a dose-dependent manner; predicted maximum recommended therapeutic dose compared to TAM [3]: approximately four times higher
COc1ccc(Nc2cccnc2)cc1C12CC3CC(CC(C3)C1)C2 [4g] | 0.129 |  | 12.1 ± 3.07 | significantly decreased cell viability | most potent antagonist activity against ERα in a dosage-dependent manner | 
COc1ccc(Nc2ccc(Cl)cc2)cc1C12CC3CC(CC(C3)C1)C2 [4a, 3-(Adamantan-1-yl)-N-(4-chlorophenyl)-4-methoxyaniline] | 0.34 |  | > 50 |  |  | 
